This is an account of results in ChEMBL document CHEMBL3784957, “Patterns of biofilm structure and formation kinetics among Acinetobacter baumannii clinical isolates with different antibiotic resistance profiles” (2016).

≈ marks a conversion by molar mass, not a printed value.

What all share (assay type): functional
For experiment [1], the system named is Acinetobacter baumannii. The experiment is described as follows: Antimicrobial activity against Acinetobacter baumannii isolate 3 by broth microdilution assay. A general note: In broth dilution the organism is exposed to a series of concentrations in liquid medium.
Experiment [2] deals with Acinetobacter baumannii. The experiment in a line: Antimicrobial activity against Acinetobacter baumannii isolate 9 by broth microdilution assay.
The subject of experiment [3] is Acinetobacter baumannii. The experiment in a line: Antimicrobial activity against Acinetobacter baumannii isolate 12 by broth microdilution assay.
Experiment [4] deals with Acinetobacter baumannii. The experiment is described as follows: Antimicrobial activity against Acinetobacter baumannii isolate 15 by broth microdilution assay.
Experiment [5] concerns Acinetobacter baumannii. The experiment is described as follows: Antimicrobial activity against Acinetobacter baumannii isolate 20 by broth microdilution assay.
Experiment [6] relates to Acinetobacter baumannii. The experiment is described as follows: Antimicrobial activity against Acinetobacter baumannii isolate 26 by broth microdilution assay.
Experiment [7] has as its system Acinetobacter baumannii. The experiment is described as follows: Antimicrobial activity against Acinetobacter baumannii isolate 30 by broth microdilution assay.
The subject of experiment [8] is Acinetobacter baumannii. The experiment is described as follows: Antimicrobial activity against Acinetobacter baumannii isolate 35 by broth microdilution assay.
The test system of experiment [9] is Acinetobacter baumannii. The experiment is described as follows: Antimicrobial activity against Acinetobacter baumannii isolate 38 by broth microdilution assay.
The test system of experiment [10] is Acinetobacter baumannii. The experiment in a line: Antimicrobial activity against Acinetobacter baumannii isolate 45 by broth microdilution assay.
Experiment [11] has as its system Acinetobacter baumannii. The experiment is described as follows: Antimicrobial activity against Acinetobacter baumannii isolate 52 by broth microdilution assay.
For experiment [12], the system named is Acinetobacter baumannii. The experiment in a line: Antimicrobial activity against Acinetobacter baumannii isolate 59 by broth microdilution assay.

As a reminder, the MIC is the lowest concentration found to suppress growth. Low values mean greater potency, high ones weaker potency.

As to `NCC[C@H](O)C(=O)N[C@@H]1C[C@H](N)[C@@H](O[C@H]2O[C@H](CN)[C@@H](O)[C@H](O)[C@H]2O)[C@H](O)[C@H]1O[C@H]1O[C@H](CO)[C@@H](O)[C@H](N)[C@H]1O` [AMIKACIN], the MIC in experiment [1] is at most 2 µg/mL; in [2], over 32 µg/mL; in experiment [3] it was 8 µg/mL (≈ 13.7 µM); in experiment [4], 16 µg/mL (≈ 27.3 µM); in experiment [5] it was over 32 µg/mL; in experiment [6], at most 2 µg/mL. In addition, the MIC in [7] is 4 µg/mL (≈ 6.83 µM); in [8], at most 2 µg/mL; in experiment [9], at most 2 µg/mL; in experiment [10], at most 2 µg/mL; in [11], at most 2 µg/mL; in experiment [12], at most 2 µg/mL.

Consider `CO/N=C(\C(=O)N[C@@H]1C(=O)N2C(C(=O)[O-])=C(C[N+]3(C)CCCC3)CS[C@H]12)c1csc(N)n1` [CEFEPIME], for which the MIC in experiment [1] is 16 µg/mL (≈ 33.3 µM); in experiment [2], 32 µg/mL (≈ 66.6 µM); in experiment [3] it was 32 µg/mL (≈ 66.6 µM); in experiment [4], over 32 µg/mL; in experiment [5] it was over 32 µg/mL; in experiment [6] it was 16 µg/mL (≈ 33.3 µM). In addition, the MIC in [7] was 16 µg/mL (≈ 33.3 µM); in [8], 8 µg/mL (≈ 16.6 µM); in experiment [9], 2 µg/mL (≈ 4.16 µM); in experiment [10], 8 µg/mL (≈ 16.6 µM); in experiment [11] it was over 32 µg/mL; in experiment [12], 2 µg/mL (≈ 4.16 µM).

In the case of `CC(C)(O/N=C(\C(=O)N[C@@H]1C(=O)N2C(C(=O)[O-])=C(C[n+]3ccccc3)CS[C@H]12)c1csc(N)n1)C(=O)O` [CEFTAZIDIME], the MIC is over 32 µg/mL in experiment [1]; over 32 µg/mL in experiment [2]; 16 µg/mL (≈ 29.3 µM) in experiment [3]; over 32 µg/mL in experiment [4]; over 32 µg/mL in [5]; over 32 µg/mL in experiment [6]. Besides, the MIC in [7] was 16 µg/mL (≈ 29.3 µM); in experiment [8] it was over 16 µg/mL; in [9] it was 4 µg/mL (≈ 7.32 µM); in [10], over 32 µg/mL; in experiment [11], over 32 µg/mL; in [12], 2 µg/mL (≈ 3.66 µM).

For the compound `O=C(O)c1cn(C2CC2)c2cc(N3CCNCC3)c(F)cc2c1=O` [CIPROFLOXACIN], the minimum inhibitory concentration (MIC) in [1], in [2], in experiment [3], in experiment [4], in experiment [5] and in experiment [6] was over 2 µg/mL each time. Besides, the MIC in experiment [7] is over 2 µg/mL; in experiment [8], over 2 µg/mL; in experiment [9] it was at most 0.25 µg/mL; in [10] it was over 2 µg/mL; in [11], over 2 µg/mL; in experiment [12], at most 0.25 µg/mL.

Take `C[C@@H](O)[C@H]1C(=O)N2C(C(=O)O)=C(SCCNC=N)C[C@H]12` [IMIPENEM ANHYDROUS]: the minimal inhibitory concentration (MIC) in [1] was over 8 µg/mL; in experiment [2], over 8 µg/mL; in [3], over 8 µg/mL; in experiment [4], over 8 µg/mL; in [5], over 8 µg/mL; in [6] it was at most 1 µg/mL. In addition, the MIC was 2 µg/mL (≈ 6.68 µM) in experiment [7]; over 8 µg/mL in experiment [8]; at most 1 µg/mL in experiment [9]; over 8 µg/mL in experiment [10]; over 8 µg/mL in experiment [11]; at most 1 µg/mL in experiment [12].

Regarding `C[C@H]1COc2c(N3CCN(C)CC3)c(F)cc3c(=O)c(C(=O)O)cn1c23.C[C@H]1COc2c(N3CCN(C)CC3)c(F)cc3c(=O)c(C(=O)O)cn1c23.O` [LEVOFLOXACIN], the MIC in experiment [1], in [2], in experiment [3], in experiment [4], in experiment [5] and in [6] was over 4 µg/mL in each case. The MIC in [7] is over 4 µg/mL; in experiment [8] it was over 4 µg/mL; in [9] it was at most 0.12 µg/mL; in experiment [10] it was over 4 µg/mL; in experiment [11] it was over 4 µg/mL; in experiment [12], at most 0.12 µg/mL.

In the case of `C[C@@H](O)[C@H]1C(=O)N2C(C(=O)O)=C(S[C@@H]3CN[C@H](C(=O)N(C)C)C3)[C@H](C)[C@H]12` [MEROPENEM], the MIC is over 8 µg/mL in [1]; over 8 µg/mL in experiment [2]; over 8 µg/mL in experiment [3]; over 8 µg/mL in experiment [4]; over 8 µg/mL in experiment [5]; 1 µg/mL (≈ 2.61 µM) in experiment [6]. The MIC in [7] is 2 µg/mL (≈ 5.22 µM); in experiment [8], 8 µg/mL (≈ 20.9 µM); in experiment [9] it was at most 0.25 µg/mL; in experiment [10] it was 8 µg/mL (≈ 20.9 µM); in [11] it was over 8 µg/mL; in experiment [12] it was 1 µg/mL (≈ 2.61 µM).

`CN(C)c1ccc(O)c2c1C[C@H]1C[C@H]3[C@H](N(C)C)C(O)=C(C(N)=O)C(=O)[C@@]3(O)C(O)=C1C2=O` [MINOCYCLINE]: the MIC is 2 µg/mL (≈ 4.37 µM) in [1]; 8 µg/mL (≈ 17.5 µM) in [2]; at most 1 µg/mL in experiment [3]; at most 1 µg/mL in [4]; 8 µg/mL (≈ 17.5 µM) in experiment [5]; 2 µg/mL (≈ 4.37 µM) in experiment [6]. The minimal inhibitory concentration (MIC) in experiment [7] was at most 1 µg/mL; in experiment [8] it was at most 1 µg/mL; in [9], at most 1 µg/mL; in experiment [10], 2 µg/mL (≈ 4.37 µM); in experiment [11], at most 1 µg/mL; in experiment [12] it was at most 1 µg/mL.

In the case of `CCN1CCN(C(=O)N[C@@H](C(=O)N[C@@H]2C(=O)N3[C@@H]2SC(C)(C)[C@@H]3C(=O)O)c2ccccc2)C(=O)C1=O` [PIPERACILLIN], the MIC in experiment [1], in experiment [2], in [3], in [4], in experiment [5] and in experiment [6] was over 64 µg/mL each time. Besides, the MIC in [7] was over 64 µg/mL; in experiment [8] it was over 64 µg/mL; in experiment [9] it was at most 8 µg/mL; in experiment [10], over 64 µg/mL; in experiment [11], over 64 µg/mL; in experiment [12], at most 8 µg/mL.

Take `CC1(C)S[C@@H]2[C@H](NC(=O)[C@H](C(=O)O)c3ccsc3)C(=O)N2[C@H]1C(=O)O` [TICARCILLIN]: the MIC is over 64 µg/mL in experiment [1]; over 64 µg/mL in experiment [2]; 64 µg/mL (≈ 166 µM) in experiment [3]; over 64 µg/mL in [4]; over 64 µg/mL in experiment [5]; 32 µg/mL (≈ 83.2 µM) in [6]. For the same compound, the MIC in [7] is over 64 µg/mL; in experiment [8] it was over 64 µg/mL; in experiment [9], at most 8 µg/mL; in experiment [10] it was over 64 µg/mL; in experiment [11], over 64 µg/mL; in experiment [12], at most 8 µg/mL.

As for `NC[C@H]1O[C@H](O[C@H]2[C@H](O)[C@@H](O[C@H]3O[C@H](CO)[C@@H](O)[C@H](N)[C@H]3O)[C@H](N)C[C@@H]2N)[C@H](N)C[C@@H]1O` [TOBRAMYCIN], the MIC in [1] is at most 1 µg/mL; in experiment [2], over 8 µg/mL; in [3], over 8 µg/mL; in experiment [4], over 8 µg/mL; in experiment [5], over 8 µg/mL; in experiment [6] it was at most 1 µg/mL. Also, the MIC in experiment [7] is 8 µg/mL (≈ 17.1 µM); in experiment [8], over 8 µg/mL; in experiment [9], over 8 µg/mL; in experiment [10], 8 µg/mL (≈ 17.1 µM); in experiment [11], at most 1 µg/mL; in experiment [12], at most 1 µg/mL.

COLISTIN: the MIC in experiment [1] was under 0.5 µg/mL; in experiment [2], under 0.5 µg/mL; in [3], 16 µg/mL; in experiment [4] it was under 0.5 µg/mL; in experiment [5], under 0.5 µg/mL; in [6] it was under 0.5 µg/mL. Further, the minimal inhibitory concentration (MIC) in [7] was under 0.5 µg/mL; in [8] it was under 0.5 µg/mL; in experiment [9] it was under 0.5 µg/mL; in experiment [10], 8 µg/mL; in [11] it was under 0.5 µg/mL; in experiment [12], under 0.5 µg/mL.

Take GENTAMICIN: the minimal inhibitory concentration (MIC) was under 1 µg/mL in experiment [1]; over 8 µg/mL in experiment [2]; over 8 µg/mL in experiment [3]; over 8 µg/mL in experiment [4]; over 8 µg/mL in [5]; under 1 µg/mL in experiment [6]. Besides, the minimal inhibitory concentration (MIC) in experiment [7] is over 8 µg/mL; in [8] it was over 8 µg/mL; in experiment [9], under 1 µg/mL; in [10], over 8 µg/mL; in experiment [11] it was 4 µg/mL; in experiment [12] it was under 1 µg/mL.
